Columns and labels:
[1] = test system: Human platelet cyclic AMP phosphodiesterase; assay: Cyclic AMP phosphodiesterase assay (human platelet); type: biochemical; details: for IC50: human platelet phosphodiesterase, 1 μM cyclic AMP as substrate; for Relative Potency: relative to theophylline (assigned a value of 1) on human platelet phosphodiesterase
Method: (§1) The inhibition of cyclic AMP phosphodiesterase activity by the subject compounds was assayed by the method of Filburn and Karn, Analyt. Biochem., 52:505-516 (1973), using 1 μM cyclic AMP as the substrate. Human platelet cyclic AMP phosphodiesterase was obtained from human donors. Platelets were isolated and washed by centrifugation, the membranes ruptured by a sequential freeze-thaw procedure and hypotonic lysis and the soluble enzyme isolated by high speed centrifugation. The enzyme was stored in aliquots at -20° C.
(§2) This table contains the IC50 values for human platelet phosphodiesterase and IC25 values for rat heart phosphodiesterase.

[2] = test system: rat heart phosphodiesterase; assay: Cyclic AMP phosphodiesterase inhibition (rat heart); type: biochemical
Method: as §1, §2

[3] = test system: Mongrel dogs; assay: Inotropic activity in anesthetized dogs; type: in vivo; details: dog
Method: Mongrel dogs were anesthetized intravenously with 35 mg/Kg sodium pentobarbital and supplemented as needed. Blood pressure was measured with a Statham pressure transducer via a cannula inserted from a femoral artery into the abdominal aorta. Heart rate was recorded by a cardiotachometer from a lead II electrocardiogram. Right ventricular contractile force was recorded from a Walton-Brodie strain gauge sutured to the right ventricle following a midsternal thoracotomy. A Harvard respirator was used to ventilate the dogs with room air through an endotracheal tube. The dog was bilaterally vagotomized. Following a midline laparotomy, a cannula was sutured into the duodenum for intraduodenal administration of test compound. A femoral vein was cannulated for administration of isoproterenol. All data were recorded on a Beckman R611 Dynograph.
To assess the responsiveness of each dog, isoproterenol was given intravenously at half-log interval doses from 0.007 to 2.1 or 6.67 μg/Kg. The test compound was then administered intraduodenally, usually at a low dose of 2 mg/Kg and subsequently at higher doses of 6.32 and/or 20 mg/Kg, if necessary. In a few instances, some compounds administered intraduodenally at dose levels from 0.316 to 3.16 mg/Kg.

SMILES	IC50 [1] [nM]	Relative Potency [1]	other results
CC(C)C(=O)OCCN(C(=O)CCCOc1ccc2c(c1)CN1CC(=O)NC1=N2)C1CCCCC1	1.1	245,000	
CC(C)(C)C(=O)OCCN(C(=O)CCCOc1ccc2c(c1)CN1CC(=O)NC1=N2)C1CCCCC1	1	270,000	
O=C1CN2Cc3cc(OCCCC(=O)N4CCCC5CCCCC54)ccc3N=C2N1 (racemic) [(±)-decahydroquinloninyl-4-(2-oxo-1,2,3,5-tetrahydroimidazo[2,1-b]quinazolin-7-yl)oxybutyramide]	13.5	20,000	Rat Heart IC25 [2]: 200 nM
O=C1CN2Cc3cc(OCCCC(=O)N4CCCCC4CC(C4CCCCC4)C4CCCCC4)ccc3N=C2N1 (racemic) [perhexylenyl (n = 3, position 7), perhexylenyl-4-(2-oxo-1,2,3,5-tetrahydroimidazo[2,1-b]quinazolin-7-yl)oxybutyramide]	1.8	146,000	Rat Heart IC25 [2]: 36 nM
O=C1CN2Cc3cc(OCCCC(=O)N(Cc4ccccc4)Cc4ccccc4)ccc3N=C2N1 [N,N--dibenzyl (n = 3, position 7), N,N-dibenzyl-4-(2-oxo-1,2,3,5-tetrahydroimidazo[2,1-b]quinazolin-7-yl)oxybutyramide]	9.2	29,300	Rat Heart IC25 [2]: 60 nM
CC(=O)OCCN(C(=O)CCCOc1ccc2c(c1)CN1CC(=O)NC1=N2)C1CCCCC1 [N-cyclohexyl-N-(acetoxyethyl)-4-(2-oxo-1,2,3,5-tetrahydroimidazo[2,1-b]quinazolin-7-yl)oxybutyramide]	1.4	193,000	
O=C1CN2Cc3cc(OCCCC(=O)N(CCOC(=O)c4ccccc4)C4CCCCC4)ccc3N=C2N1 [N-cyclohexyl-N-(benzoyloxyethyl)-4-(2-oxo-1,2,3,5-tetrahydroimidazo[2,1-b]quinazolin-7-yl)oxybutyramide]	0.94	287,000	
CN(C(=O)CCCOc1cccc2c1CN1CC(=O)NC1=N2)C1CCCCC1 [N-cyclohexyl-N-methyl-4-(2-oxo-1,2,3,5-tetrahydroimidazo[2,1-b]quinazolin-6-yl)oxybutyramide]	2000	135	
CN(C(=O)CCCOc1ccc2c(c1)N=C1NC(=O)CN1C2)C1CCCCC1 [N-cyclohexyl-N-methyl-4-(2-oxo-1,2,3,5-tetrahydroimidazo[2,1-b]quinazolin-8-yl)oxybutyramide]	150	1,800	
CN(C(=O)CCCOc1cccc2c1N=C1NC(=O)CN1C2)C1CCCCC1 [N-cyclohexyl-N-methyl-4-(2-oxo-1,2,3,5-tetrahydroimidazo[2,1-b]quinazolin-9-yl)oxybutyramide]	> 10000	< 2.7	
C[C@H]1C(=O)NC2=Nc3ccc(OCCCC(=O)N(C)C4CCCCC4)cc3CN21 [N-cyclohexyl-N-methyl-4-(2-oxo-3-L-methyl-1,2,3,5-tetrahydroimidazo[2,1-b]quinzolin-7-yl)oxybutyramide]			Blood Pressure, peak effect as % of max. isoproterenol ([3]; i.v., 0.1 mg/kg): 97%; Heart Rate, peak effect as % of max. isoproterenol ([3]; i.v., 0.1 mg/kg): 55%; Rt. Ventricular Contractile Force, peak effect as % of max. isoproterenol ([3]; i.v., 0.1 mg/kg): 32%; Blood Pressure, peak effect as % of max. isoproterenol ([3]; intraduodenal, 0.316 mg/kg): 17%; Heart Rate, peak effect as % of max. isoproterenol ([3]; intraduodenal, 0.316 mg/kg): 11%; Rt. Ventricular Contractile Force, peak effect as % of max. isoproterenol ([3]; intraduodenal, 0.316 mg/kg): 23%; Blood Pressure, peak effect as % of max. isoproterenol ([3]; intraduodenal, 1.0 mg/kg): 54%; Heart Rate, peak effect as % of max. isoproterenol ([3]; intraduodenal, 1.0 mg/kg): 44%; Rt. Ventricular Contractile Force, peak effect as % of max. isoproterenol ([3]; intraduodenal, 1.0 mg/kg): 69%; Blood Pressure, peak effect as % of max. isoproterenol ([3]; intraduodenal, 3.16 mg/kg): 94%; Heart Rate, peak effect as % of max. isoproterenol ([3]; intraduodenal, 3.16 mg/kg): 58%; Rt. Ventricular Contractile Force, peak effect as % of max. isoproterenol ([3]; intraduodenal, 3.16 mg/kg): 55%

Source: patent US4663320A, “(2-oxo-1,2,3,5-tetrahydroimidazo[2,1-b]quinoazolinyl)oxyalkylamides, compositions and the use thereof” (Syntex (U.S.A.) Inc., priority 1985, dated 1987)
